Data published in patent US12667572B2, “Tricyclic compounds useful in the treatment of cancer, autoimmune and inflammatory disorders” (SCHRÖDINGER, INC., priority 2021, dated 2026).

Target: T1, full-length MALT1 protein His-MALT1(1-824) (Homo sapiens, UniProt Q9UDY8)
T1 construct: full-length MALT1 protein His-MALT1(1-824); His (N); made in house; host or cells: baculovirus-infected insect cells
T1 sequence (Q9UDY8 1-824): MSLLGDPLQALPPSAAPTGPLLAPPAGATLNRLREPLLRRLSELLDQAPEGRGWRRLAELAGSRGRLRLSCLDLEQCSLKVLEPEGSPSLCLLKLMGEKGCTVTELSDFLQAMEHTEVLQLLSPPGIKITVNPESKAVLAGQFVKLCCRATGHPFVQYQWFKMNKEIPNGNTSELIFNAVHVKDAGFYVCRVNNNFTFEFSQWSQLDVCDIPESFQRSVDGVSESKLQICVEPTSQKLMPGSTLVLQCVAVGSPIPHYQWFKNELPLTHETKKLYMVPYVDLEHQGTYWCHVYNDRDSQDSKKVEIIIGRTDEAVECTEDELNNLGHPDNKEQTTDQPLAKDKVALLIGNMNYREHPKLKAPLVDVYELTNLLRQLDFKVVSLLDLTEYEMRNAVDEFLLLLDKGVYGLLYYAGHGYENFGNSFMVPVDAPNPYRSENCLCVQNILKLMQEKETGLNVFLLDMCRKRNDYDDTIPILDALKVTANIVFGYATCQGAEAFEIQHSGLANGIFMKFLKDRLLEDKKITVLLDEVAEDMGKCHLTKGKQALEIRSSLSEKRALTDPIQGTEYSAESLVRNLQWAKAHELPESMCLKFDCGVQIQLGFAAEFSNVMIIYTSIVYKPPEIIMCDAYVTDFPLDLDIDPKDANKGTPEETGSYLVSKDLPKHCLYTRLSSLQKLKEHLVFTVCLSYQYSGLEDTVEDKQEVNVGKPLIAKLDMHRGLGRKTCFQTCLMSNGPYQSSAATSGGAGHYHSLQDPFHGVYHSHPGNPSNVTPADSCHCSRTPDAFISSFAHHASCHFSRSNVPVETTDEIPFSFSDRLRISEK
Experiment: MALT1 protease assay, Assay 1 (2 nM MALT1, Ac-LRSR-AMC substrate)
Type: biochemical
Settings: 2 nM MALT1, 50 μM Ac-LRSR-AMC, 2 h pre-incubation, 8 hr incubation at RT
Procedure: MALT1 protease activity was assessed in an in vitro assay using a tetrapeptide as substrate and full-length MALT1 protein His-MALT1(1-824) purified from baculovirus-infected insect cells. The tetrapeptide substrate is Ac-LRSR-AMC (SM Biochemicals) with Km measured at around 100 μM.
The final assay buffer includes 1 nM (Assay 2) or 2 nM (Assay 1) of MALT1 full-length protein, 50 μM Ac-LRSR-AMC substrate, 50 mM Tris pH 7.5, 600 mM Sodium Citrate, 1 mM DTT, 1 mM EDTA, and 0.05% BSA in 384-well plate format using black microtiter square well plates (Optiplate 384-F, Perkin Elmer).
Test compounds were dissolved in 100% DMSO at stock of 10 mM, with final DMSO concentration 0.1%. Test compounds were pre-incubated with MALT1 protein for 2 h at room temperature. Substrate was added after the pre-incubation and fluorescence signal was measured using Envision at excitation 355 nm and emission 460 nm after 8 hr incubation at RT. Increase in the assay signal was linear over this period and proportional with increase in the enzyme content.
The fluorescence units were transformed to percentage of remaining activity by using the high control (HC, median of fluorescence signal from wells containing MALT1 protein, substrate, and DMSO) and low control (LC, median of fluorescence signal from wells with substrate only) with the formula below: […]
IC50 and Hill coefficients were obtained using Graph Pad Prism (Graph Pad software, Inc, USA) with non-linear regression analysis.

How did the IC50 turn out when `CC1(C)CC(C(=O)Nc2cnc(-n3nccn3)c(Cl)c2)c2cnc3cc(C(F)(F)F)nn3c21` (stereo not shown) [Example 40, N-(5-chloro-6-(2H-1,2,3-triazol-2-yl)pyridin-3-yl)-8,8-dimethyl-2-(trifluoromethyl)-7,8-dihydro-6H-cyclopenta[e]pyrazolo[1,5-a]pyrimidine-6-carboxamide] was run?
Its IC50 is 10 to 100 nM.

With `CC1(C)C[C@@H](C(=O)Nc2cnc(-n3cccn3)c(Cl)c2)c2cnc3cc(Cl)nn3c21` (single isomer, unassigned) [Example 12, 2-chloro-N-(5-chloro-6-(1H-pyrazol-1-yl)pyridin-3-yl)-8,8-dimethyl-7,8-dihydro-6H-cyclopenta[e]pyrazolo[1,5-a]pyrimidine-6-carboxamide] as the molecule, how does the IC50 read?
Its IC50 is ≥ 1000 nM.

`CC1(C)CC(C(=O)Nc2cnc(-n3nccn3)c(Cl)c2)c2cnc3cc(Cl)nn3c21` (single isomer, unassigned) [Example 1, 2-chloro-N-(5-chloro-6-(2H-1,2,3-triazol-2-yl)pyridin-3-yl)-8,8-dimethyl-7,8-dihydro-6H-cyclopenta[e]pyrazolo[1,5-a]pyrimidine-6-carboxamide] was tested. Which IC50 did it give?
The IC50 was 100 to 1000 nM.

Which IC50 does the source give for `CC1(C)C[C@@H](C(=O)Nc2cnc(-n3nccn3)c(Cl)c2)c2cnc3cc(C(F)F)nn3c21` (single isomer, unassigned) [Example 24, N-(5-chloro-6-(2H-1,2,3-triazol-2-yl)pyridin-3-yl)-2-(difluoromethyl)-8,8-dimethyl-7,8-dihydro-6H-cyclopenta[e]pyrazolo[1,5-a]pyrimidine-6-carboxamide] here?
Its IC50 is ≥ 1000 nM.

For `CC1(C)C[C@@H](C(=O)Nc2cnc(-n3cc(C#N)cn3)c(Cl)c2)c2cnc3cc(Cl)nn3c21` (single isomer, unassigned) [Example 14, 2-chloro-N-(5-chloro-6-(4-cyano-1H-pyrazol-1-yl)pyridin-3-yl)-8,8-dimethyl-7,8-dihydro-6H-cyclopenta[e]pyrazolo[1,5-a]pyrimidine-6-carboxamide], which IC50 is on record?
Its IC50 is ≥ 1000 nM.

With `CC1(C)CC(C(=O)Nc2cnc(-n3nccn3)c(Cl)c2)c2ccc3cc(O)nn3c21` (stereo not shown) [Example 41, N-(5-chloro-6-(2H-1,2,3-triazol-2-yl)pyridin-3-yl)-2-hydroxy-8,8-dimethyl-7,8-dihydro-6H-cyclopenta[e]pyrazolo[1,5-a]pyridine-6-carboxamide] as the molecule, how does the IC50 read?
Its IC50 is 100 to 1000 nM.

With `CC1(C)CC[C@@H](C(=O)Nc2cnc(-n3nccn3)c(Cl)c2)c2cnc3cc(Cl)nn3c21` (single isomer, unassigned) [Example 8, 2-chloro-N-(5-chloro-6-(2H-1,2,3-triazol-2-yl)pyridin-3-yl)-9,9-dimethyl-6,7,8,9-tetrahydropyrazolo[1,5-a]quinazoline-6-carboxamide] as the molecule, how does the IC50 read?
The IC50 was ≥ 1000 nM.

Which IC50 does the source give for `CCc1cc2ncc3c(n2n1)C(C)(C)C[C@H]3C(=O)Nc1cnc(-n2nccn2)c(Cl)c1` (single isomer, unassigned) [Example 20, N-(5-chloro-6-(2H-1,2,3-triazol-2-yl)pyridin-3-yl)-2-ethyl-8,8-dimethyl-7,8-dihydro-6H-cyclopenta[e]pyrazolo[1,5-a]pyrimidine-6-carboxamide] here?
The IC50 was ≥ 1000 nM.

With `CC1(C)C[C@H](C(=O)Nc2cnc(N3CCCC3)c(Cl)c2)c2cnc3cc(Cl)nn3c21` (single isomer, unassigned) [Example 17, 2-chloro-N-(5-chloro-6-(pyrrolidin-1-yl)pyridin-3-yl)-8,8-dimethyl-7,8-dihydro-6H-cyclopenta[e]pyrazolo[1,5-a]pyrimidine-6-carboxamide] as the molecule, how does the IC50 read?
Its IC50 is 10 to 100 nM.

Which IC50 does the source give for `CC1(C)c2c(cnc3cc(Cl)nn23)C(C(=O)Nc2cnc(-n3nccn3)c(Cl)c2)C1O` (racemic) [Example 19, 2-chloro-N-(5-chloro-6-(2H-1,2,3-triazol-2-yl)pyridin-3-yl)-7-hydroxy-8,8-dimethyl-7,8-dihydro-6H-cyclopenta[e]pyrazolo[1,5-a]pyrimidine-6-carboxamide] here?
Its IC50 is 100 to 1000 nM.

`Cn1nc(-c2ncc(NC(=O)C3CC(C)(C)c4c3cnc3cc(Cl)nn43)cc2Cl)cc1O` (stereo not shown) [Example 42, 2-chloro-N-(5-chloro-6-(5-hydroxy-1-methyl-1H-pyrazol-3-yl)pyridin-3-yl)-8,8-dimethyl-7,8-dihydro-6H-cyclopenta[e]pyrazolo[1,5-a]pyrimidine-6-carboxamide] was tested. Which IC50 did it give?
The IC50 was ≥ 1000 nM.

Which IC50 does the source give for `Cn1cnc(-c2ncc(NC(=O)[C@@H]3CC(C)(C)c4c3cnc3cc(Cl)nn43)cc2Cl)c1` (single isomer, unassigned) [Example 34, 2-chloro-N-(5-chloro-6-(1-methyl-1H-imidazol-4-yl)pyridin-3-yl)-8,8-dimethyl-7,8-dihydro-6H-cyclopenta[e]pyrazolo[1,5-a]pyrimidine-6-carboxamide] here?
The IC50 was ≥ 1000 nM.

`CC1(C)CCC(C(=O)Nc2cnc(-n3nccn3)c(Cl)c2)c2cnc3cc(Cl)nn3c21` (stereo not shown) [Example 7, 2-chloro-N-(5-chloro-6-(2H-1,2,3-triazol-2-yl)pyridin-3-yl)-9,9-dimethyl-6,7,8,9-tetrahydropyrazolo[1,5-a]quinazoline-6-carboxamide] was tested. Which IC50 did it give?
The IC50 was 10 to 100 nM.

How did the IC50 turn out when `CC1(C)C[C@@H](C(=O)Nc2cnc(-n3ncc(CO)n3)c(Cl)c2)c2cnc3cc(Cl)nn3c21` (single isomer, unassigned) [Example 30, 2-chloro-N-(5-chloro-6-(4-(hydroxymethyl)-2H-1,2,3-triazol-2-yl)pyridin-3-yl)-8,8-dimethyl-7,8-dihydro-6H-cyclopenta[e]pyrazolo[1,5-a]pyrimidine-6-carboxamide] was run?
Its IC50 is ≥ 1000 nM.

How did the IC50 turn out when `Cn1ccc(-c2ncc(NC(=O)[C@@H]3CC(C)(C)c4c3cnc3cc(Cl)nn43)cc2Cl)n1` (single isomer, unassigned) [Example 10, 2-chloro-N-(5-chloro-6-(1-methyl-1H-pyrazol-3-yl)pyridin-3-yl)-8,8-dimethyl-7,8-dihydro-6H-cyclopenta[e]pyrazolo[1,5-a]pyrimidine-6-carboxamide] was run?
The IC50 was ≥ 1000 nM.

Target: T1, full-length MALT1 protein His-MALT1(1-824)
Experiment: MALT1 protease assay, Assay 2 (1 nM MALT1, Ac-LRSR-AMC substrate)
Type: biochemical
Settings: 1 nM MALT1, 50 μM Ac-LRSR-AMC, 2 h pre-incubation, 8 hr incubation at RT
How it was run: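 Compounds (0.1% DMSO final) sat 2 h at RT with insect-cell-expressed His-MALT1(1-824), in 50 mM Tris pH 7.5, 600 mM sodium citrate, 1 mM DTT, 1 mM EDTA, 0.05% BSA. Cleavage of 50 μM Ac-LRSR-AMC (Km ~100 μM) ran 8 h at RT, read as AMC fluorescence. IC50 and Hill coefficient fitted to % remaining activity.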

With `CC1(C)C[C@@H](C(=O)Nc2ccnc(C(F)(F)F)c2)c2cnn3cc(C(F)F)nc3c21` (single isomer, unassigned) [Example 200, 2-(difluoromethyl)-9,9-dimethyl-N-(2-(trifluoromethyl)pyridin-4-yl)-8,9-dihydro-7H-cyclopenta[d]imidazo[1,2-b]pyridazine-7-carboxamide] as the molecule, how does the IC50 read?
The IC50 was 100 to 1000 nM.

Which IC50 does the source give for `CC1(C)CC(C(=O)Nc2cnc(C(=O)N3CC(F)(F)C3)c(C(F)F)c2)c2cnc3cc(Cl)nn3c21` (stereo not shown) [Example 174, 2-chloro-N-(6-(3,3-difluoroazetidine-1-carbonyl)-5-(difluoromethyl)pyridin-3-yl)-8,8-dimethyl-7,8-dihydro-6H-cyclopenta[e]pyrazolo[1,5-a]pyrimidine-6-carboxamide] here?
Its IC50 is 100 to 1000 nM.

`CC1(C)CC(O)(C(=O)Nc2cnc(-n3nccn3)c(Cl)c2)c2cnc3cc(Cl)nn3c21` (stereo not shown) [Example 69, 2-chloro-N-(5-chloro-6-(2H-1,2,3-triazol-2-yl)pyridin-3-yl)-6-hydroxy-8,8-dimethyl-7,8-dihydro-6H-cyclopenta[e]pyrazolo[1,5-a]pyrimidine-6-carboxamide] was tested. Which IC50 did it give?
Its IC50 is ≥ 1000 nM.

With `CC1(C)C[C@@H](C(=O)Nc2cnc(-n3nccn3)c(Cl)c2)c2cnn3cc(Cl)nc3c21` (single isomer, unassigned) [Example 194, 2-chloro-N-(5-chloro-6-(2H-1,2,3-triazol-2-yl)pyridin-3-yl)-9,9-dimethyl-8,9-dihydro-7H-cyclopenta[d]imidazo[1,2-b]pyridazine-7-carboxamide] as the molecule, how does the IC50 read?
Its IC50 is 100 to 1000 nM.
